The supplement of paper PMC10307832

Tests used:
Experiment in all cases: relative viability (nuclei count vs DMSO), 5 days (fraction); higher = more cells survive
Dasatinib + Pictilisib = compound: Cc1nc(Nc2ncc(C(=O)Nc3c(C)cccc3Cl)s2)cc(N2CCN(CCO)CC2)n1 [Dasatinib] + CS(=O)(=O)N1CCN(Cc2cc3nc(-c4cccc5[nH]ncc45)nc(N4CCOCC4)c3s2)CC1 [Pictilisib] (partner 1 µM)
Method in brief: (§1)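 Lung cancer cell lines were pin-tool dosed in 1536-well plates on the day after seeding, with either a lone drug or a fixed anchor-drug dose plus five library-drug doses (not always all listed) in √10 steps. Nuclei were counted on 4× images after 5 days. Relative viability is the ratio of treated-well to vehicle-well nuclei counts, with each value a median of duplicate plates.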

Dasatinib + AZD7762 = compound: Cc1nc(Nc2ncc(C(=O)Nc3c(C)cccc3Cl)s2)cc(N2CCN(CCO)CC2)n1 [Dasatinib] + NC(=O)Nc1cc(-c2cccc(F)c2)sc1C(=O)N[C@H]1CCCNC1 [AZD7762] (partner 0.2 µM)
Method in brief: as §1

ALW-II-49-7 + Olaparib = compound: Cc1ccc(C(=O)Nc2cccc(C(F)(F)F)c2)cc1Nc1cncc(C(N)=O)c1 [ALW-II-49-7] + O=C(c1cc(Cc2n[nH]c(=O)c3ccccc23)ccc1F)N1CCN(C(=O)C2CC2)CC1 [Olaparib] (partner 8 µM)
Method in brief: as §1

[1] = compound: Cc1ccc(C(=O)Nc2cccc(C(F)(F)F)c2)cc1Nc1cncc(C(N)=O)c1 [ALW-II-49-7] + CC(=O)c1c(C)c2cnc(Nc3ccc(N4CCNCC4)cn3)nc2n(C2CCCC2)c1=O [Palbociclib] (partner 0.5 µM)
Method in brief: as §1

Cell Line	relative viability (Dasatinib + Pictilisib; first compound 0.005 µM)	relative viability (Dasatinib + Pictilisib; first compound 0.01581 µM)	relative viability (Dasatinib + Pictilisib; first compound 0.05 µM)	relative viability (Dasatinib + Pictilisib; first compound 0.1581 µM)	relative viability (Dasatinib + Pictilisib; first compound 0.5 µM)	relative viability (Dasatinib + AZD7762; first compound 0.005 µM)	relative viability (Dasatinib + AZD7762; first compound 0.01581 µM)	relative viability (Dasatinib + AZD7762; first compound 0.05 µM)	relative viability (Dasatinib + AZD7762; first compound 0.1581 µM)	relative viability (Dasatinib + AZD7762; first compound 0.5 µM)	relative viability (ALW-II-49-7 + Olaparib; first compound 0.08 µM)	relative viability (ALW-II-49-7 + Olaparib; first compound 0.253 µM)	relative viability (ALW-II-49-7 + Olaparib; first compound 0.8 µM)	relative viability (ALW-II-49-7 + Olaparib; first compound 2.53 µM)	relative viability (ALW-II-49-7 + Olaparib; first compound 8 µM)	relative viability ([1]; first compound 0.08 µM)	relative viability ([1]; first compound 0.253 µM)	relative viability ([1]; first compound 0.8 µM)	relative viability ([1]; first compound 2.53 µM)	relative viability ([1]; first compound 8 µM)
NCI-H23	0.335	0.26	0.376	0.28	0.181	0.321	0.24	0.231	0.224	0.187	0.328	0.363	0.383	0.294	0.298	0.495	0.496	0.573	0.54	0.543
NCI-H322M	0.433	0.408	0.37	0.245	0.171	0.597	0.526	0.468	0.265	0.381	0.288	0.742	0.638	0.732	0.716	0.439	0.453	0.486	0.534	0.505
NCI-H358	0.383	0.232	0.287	0.206	0.208	0.538	0.455	0.364	0.241	0.244	0.431	0.545	0.644	0.452	0.387	0.128	0.13	0.141	0.133	0.117
NCI-H441	0.555	0.437	0.381	0.211	0.145	1.27	1.01	0.904	0.723	0.364	0.592	0.52	0.592	0.47	0.383	0.182	0.177	0.249	0.212	0.188
NCI-H460	0.195	0.102	0.208	0.189	0.104	0.523	0.546	0.542	0.472	0.328	0.435	0.704	0.414	0.143	0.325	0.171	0.185	0.126	0.136	0.111
NCI-H647	0.258	0.308	0.182	0.11	0.122	0.468	0.399	0.141	0.114	0.155	0.619	0.386	0.636	0.51	0.367	0.422	0.307	0.444	0.294	0.238
NCI-H650	0.862	0.794	0.898	0.497	0.345	0.75	0.896	1.01	0.606	0.4	0.42	0.388	0.416	0.351	0.304	0.277	0.309	0.351	0.327	0.236
NCI-H727	0.33	0.267	0.258	0.209	0.176	0.547	0.587	0.595	0.375	0.35	0.663	0.843	0.603	0.501	0.597	0.604	0.63	0.676	0.555	0.577
